In patent US12098217B2, “Fusion peptides as antimicrobial agents” (CENTRE NATIONAL DE LA RECHERCHE SCIENTIFIQUE, priority 2019, dated 2024):

Columns and labels:
E. coli D22 cells = settings: FITC staining after exposure to equal amounts, FIG. 1
Protocol: FIG. 1 concerns the analysis of peptide penetration into E. coli cells. (a) Fluorescence microscopy of E. coli cells exposed to the three different FITC labeled peptides.
In order to analyse the penetration capacity of the peptides in E. coli D22 cells, FITC-labeled peptides were added to 1 ml of bacterial cultures (OD600=0.8) at a final concentration of 8 μg/ml. The cells were allowed to acquire the peptides for 1 h at 37° C., washed 3 times with 0.5 ml PBS, fixed with 1% formaldehyde solution in PBS for 45 min at room temperature, washed 3 times with 0.5 ml PBS and finally resuspended in 50 μl PBS. Cells were visualized using a Leica DM5500 microscope equipped with a 100× objective and images were processed using Fiji software. One-way ANOVA statistical analysis was performed with the R package.

E coli β SC = target: T1, E coli β SC (Escherichia coli, UniProt P0A988); assay: Co-immunoprecipitation of FITC peptides with E. coli β SC; format: cell-based; settings: E. coli D22 cells, 1 hour, 16 μM FITC labelled peptide, FIG. 4
T1 construct: endogenous in cells; host or cells: E. coli D22
Protocol: FIG. 4 concerns the co-immunoprecipitation of FITC-K-Py-P7 peptide with the E coli β SC. E. coli D22 cells were incubated for 1 hour with or without 16 μM of the indicated FITC labelled peptide (lanes 1 and 5: no peptide; lanes 2 and 6: FITC-K-Pyr; lanes 3 and 7: FITC-K-Py-P7Scr; lanes 4 and 8: FITC-K-Py-P7). Lanes 1-4: 5% of the pre-cleared extracts were loaded as input controls. Lanes 5: Ig G sepharose beads pull down of the pre-cleared extracts not exposed to anti-FITC antibody. Lanes 6 to 8: Ig G sepharose beads pull down of the pre-cleared extracts previously incubated with FITC-labelled peptides and then exposed to anti-FITC antibody. Lanes 9-11: purified native β SC protein (lane 9: 5 ng; lane 10: 10 ng; lane 11: 20 ng). Upper image: western blot using the Ab 246, β SC specific monoclonal antibody. Lower image: total protein staining of the same membrane. M: Molecular weight markers.

T1 sequence (P0A988 whole entry): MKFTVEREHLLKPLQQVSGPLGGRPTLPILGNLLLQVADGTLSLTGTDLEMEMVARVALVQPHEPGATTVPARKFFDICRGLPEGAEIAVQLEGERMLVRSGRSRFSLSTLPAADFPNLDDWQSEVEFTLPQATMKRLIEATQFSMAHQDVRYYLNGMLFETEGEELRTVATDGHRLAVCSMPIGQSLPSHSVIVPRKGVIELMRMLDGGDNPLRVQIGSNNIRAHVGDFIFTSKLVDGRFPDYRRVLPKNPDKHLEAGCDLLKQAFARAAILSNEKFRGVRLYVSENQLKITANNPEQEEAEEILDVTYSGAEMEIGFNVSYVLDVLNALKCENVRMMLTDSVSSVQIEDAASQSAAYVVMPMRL

CC[C@H](C)[C@H](NC(=O)[C@@H]1CCCN1C(=O)[C@H](CCCNC(=N)N)NC(=O)[C@@H]1CCCN1C(=O)[C@@H]1CCCN1C(=O)[C@@H](NC(=O)[C@@H]1CCCN1C(=O)[C@H](CCCNC(=N)N)NC(=O)[C@@H]1CCCN1C(=O)[C@H](CC(C)C)NC(=O)[C@H](Cc1ccc(O)cc1)NC(=O)[C@H](CO)NC(=O)CNC(=O)[C@H](CCCCN)NC(=O)[C@H](CC(=O)O)NC(=O)[C@@H](NC(=O)[C@H](CCCCN)NC(=O)c1ccc2c(c1)C(=O)OC21c2ccc(O)cc2Oc2cc(O)ccc21)C(C)C)[C@@H](C)O)C(=O)N[C@@H](Cc1ccc(O)cc1)C(=O)N[C@@H](CC(N)=O)C(=O)N[C@@H](CCCNC(=N)N)C(=O)N[C@@H](CC(N)=O)C(=O)NCC(=O)N1CCC[C@H]1C(=O)N[C@@H](CCCNC(=N)N)C(=O)N[C@@H](CCC(N)=O)C(=O)N[C@@H](CC1CCCCC1)C(=O)N[C@@H](CC(=O)O)C(=O)N[C@@H](CC(C)C)C(=O)N[C@@H](Cc1ccccc1)C(=O)O [Peptide P150]
entry into E. coli cells, times less efficiently than P122 (E. coli D22 cells): about 3 times
binding of SC within the bacterial cytoplasm (co-immunoprecipitation), in words (E coli β SC): can efficiently bind SC
